Source: patent US20220251085A1, “CYSTEINE BINDING COMPOSITIONS AND METHODS OF USE THEREOF” (University of Virginia Patent Foundation, priority 2019, published 2022)

Experiments:
[1] = HPLC assay for profiling solution reactivity and stability of purine fragments (probes) with amino acid mimetics; assay type: physicochemical; settings: for reaction with butanethiol: cysteine mimetic
Description: HPLC assay for profiling solution reactivity and stability of purine fragments: The following reagents were prepared and stored on ice prior to use. 0.1 molar (M) solution of caffeine in acetonitrile, 1.0 M solution of amino acid mimetic (butanethiol—cysteine mimetic; n-butylamine—lysine mimetic; p-cresol—tyrosine mimetic; propionamide-asparagine/glutamine mimetic; butyric acid—aspartic/glutamic acid mimetic), tetramethylguanidine (TMG), 1 M acetic acid (HOAc) in acetonitrile (ACN) and 10 mM solution of purine fragment in ACN mixture. 500 μL of fragment solution were transferred to a dram vial on ice. To the mixture, 5.5 μL of TMG and 5.5 μL of respective amino acid mimetic were added and solutions were stirred on ice for 6 h. To monitor reactivity, 50 μL aliquots were removed at indicated time points and quenched with 10 μL of a 1:1 mixture of caffeine and HOAc. Samples were injected (1 μL) and analyzed by reverse-phase HPLC on a Shimadzu 1100 Series spectrometer (Shimadzu Corporation, Kyoto, Japan) with UV detection at 254 nm. Reaction progress was evaluated by monitoring consumption of starting material (purine fragment) normalized to caffeine standard. Chromatographic separation was performed using a Phenomenex Kinetex C18 column (2.6 μm, 50×4.6 mm; Phenomenex, Torrance, Calif., United States of America). Mobile phases A and B were composed of H2O+0.1% HOAc and ACN+0.1% HOAc, respectively. […] All purine fragment peak AUCs used for calculations were normalized to caffeine standard AUCs at respective time points to account for run-to-run variations by HPLC. The amount of purine fragment consumed (% starting material) was plotted as a function of time.
Discussion: An HPLC assay for determining the reactivity of the purine-based probes with mimetics of amino acid residues was performed. […] Reaction progress was monitored by monitoring the disappearance of starting material and appearance of product via HPLC.

C57Bl/6 mice = assay: In vivo activity of purine probes in mouse tissues, gel-based; settings: for time of peak / most robust labeling in vivo: 20 mg/kg probe
Description: Mouse Treatment and Tissue Preparation Methods: 8-12 week old male and female C57Bl/6 mice were treated intraperitoneally (IP) or by oral gavage (OG) with either AHL125 (Pu-1 or AHL-Pu-1), AHL128 (Pu-2 or AHL-Pu-2), or vehicle (18:1:2, PBS:PEG40:DMSO) at 20 mg/kg unless stated otherwise. Treatment time is indicated in the experiment below. Mice were then euthanized and perfused using PBS. Tissues were then harvested, rinsed and flash frozen using liquid nitrogen and stored at −80° C. until further use. Tissues were lysed using dounce homgenization in the presence of PBS+protease inhibitor. Initial suspensions were centrifuged at 3000×g for 5 minutes to remove insoluble material. The lysate was collected and centrifuged again at 100,000×g for 45 minutes to obtain the soluble fraction. Purine probe modified proteins from treated mice were conjugated to rhodamine-azide by CuAAC, subjected to SDS-PAGE analysis, and detected by in-gel fluorescence scanning. SDS-PAGE gels were stained with Coomassie brilliant blue to determine protein load. All samples were loaded with equivalent amounts of protein. Thus, changes in purine probe labeling is not due to loading of different proteome amounts.
Mice were also treated with 80 mg/kg oral gavage (OG) to determine whether purine probes are orally bioavailable. Mice were treated for four hours.

DM93 cells = assay: Live cell activity of purine probes, gel-based (CuAAC rhodamine-azide, in-gel fluorescence); settings: for labeling profile in live cells: DM93 cells, 25 μM, 4 hours
Description: Live Cell Activity Method: DM93 cells were grown at 37° C. in 5% CO2 until 90% confluent. Once confluent cells were washed with serum free media and treated with halogenated purine probes at a final concentration of 25 μM (unless stated) for 4 hours (unless stated). Cells were then scraped and washed 3× with cold PBS and lysed in PBS+protease inhibitor. Lysates were spun at 100,000×g for 45 minutes. Halogen probe-modified proteins in soluble fractions were visualized by conjugating rhodamine-azide using copper-catalyzed azide-alkyne cycloaddition (CuAAC; 1 hour, room temperature), subjected to SDS-PAGE, and detected by in-gel fluorescence scanning. SDS-PAGE gels were also stained with Coomassie brilliant blue to determine protein load. All samples were loaded with equivalent amounts of protein. Thus, changes in purine probe labeling is not due to loading of different proteome amounts.

[2] = tested on: DM93 cells lysates (soluble fractions); assay: Lysate activity of purine probes, gel-based (in-gel fluorescence); assay type: biochemical; settings: for protein labeling activity in lysates: DM93 soluble fractions, 25 μM, 2 hrs, 37° C.
Description: Lysate Activity Method: DM93 cells were grown at 37° C. in 5% CO2 until 90% confluent. Once confluent, cells were scraped and washed 3× times with cold PBS and lysed in PBS+protease inhibitor. Lysates were spun at 100,000×g for 45 minutes. Soluble fractions were treated with 25 μM of halogenated purine probes (unless stated) for 2 hrs (unless stated) at 37° C. Purine probe modified proteins were conjugated to rhodamine-azide by CuAAC, subjected to SDS-PAGE analysis, and detected by in-gel fluorescence scanning. SDS-PAGE gels were stained with Coomassie brilliant blue to determine protein load.

reaction with butanethiol ([1]; on ice 6 h) | reactivity with lysine mimetic ([1]; n-butylamine, on ice 6 h) | SMILES | solution-based reactivity with amino acid mimetics ([1]; HPLC, % starting material consumed, on ice 6 h) | reaction kinetics compared to N9 counterparts ([1]; butanethiol, versus Pu-2, Pu-4, Pu-10) | reactivity towards nucleophilic attack, N7 versus N9 tautomer ([1]; compared with Pu-2) | tissue with highest activity (C57Bl/6 mice) | time of peak / most robust labeling in vivo (C57Bl/6 mice) | labeling profile in vivo across tissues (C57Bl/6 mice; IP or OG, lung, liver, spleen, heart, brain, kidney, WAT) | labeling profile in live cells (DM93 cells) | reactivity of N7 versus N9 tautomers (DM93 cells; live DM93 cells) | concentration dependence of labeling (DM93 cells; live cells) | time dependence of labeling (DM93 cells; live cells) | protein labeling activity in lysates [2] | reactivity of N7 versus N9 tautomers ([2]; lysates) | concentration dependence of labeling ([2]; proteomes) | time dependence of labeling ([2]; proteomes)
react with butanethiol |  | C#CCn1cnc2nc(Cl)nc(Cl)c21 [Pu-1, 2,6-Dichloro-7-(prop-2-yn-1-yl)-7H-purine] | modifies cysteine (Cys) and tyrosine (Tyr) amino acid mimetics | accelerated reaction kinetics | more reactive towards nucleophilic attack | highest activity in lung | 2 h | most robust labeling profile in vivo | robust labeling profiles | more reactive | concentration dependent labeling | react in a time dependent manner | highest protein labeling activity | more reactive | concentration dependent labeling of proteomes | time dependence in protein labeling
react with butanethiol | mild lysine (Lys) reactivity | C#CCn1cnc2c(Cl)nc(Cl)nc21 [Pu-2, 2,6-Dichloro-9-(prop-2-yn-1-yl)-9H-purine] |  |  |  |  | 4 h |  | robust labeling profiles |  |  | react in a time dependent manner | highest protein labeling activity |  |  | time dependence in protein labeling
